Experimental data published in ChEMBL document CHEMBL1201862, “PubChem BioAssay data set” (2004).
Active and inactive are the calls of the source.

How the values were obtained:
[1] = target: Induced myeloid leukemia cell differentiation protein Mcl-1 (Homo sapiens, UniProt Q07820); format: functional
[2] = target: T1, Runt-related transcription factor 1/Core-binding factor subunit beta (Homo sapiens, UniProt Q01196+Q13951); experiment: Runt domain/CBFb-SMMHC interaction disruptors – biochemical, TR-FRET (AID 1438); format: protein assay
[3] = target: T1, Runt-related transcription factor 1/Core-binding factor subunit beta; experiment: disruptors of Runt domain/CBFb-SMMHC interaction – biochemical, FRET, Cerulean-Runt, Venus-CBFb-SMMHC, uHTS, […] (AID 1434); format: protein assay
SUMO-activating enzyme = SUMO-activating enzyme (Homo sapiens, UniProt Q9UBT2); experiment: blockers of UBC9-mediated SUMO conjugation – biochemical, AlphaScreen, SUMOylation inhibitor project, confirmation (AID 2018); format: functional
[4] = viability of uninfected HEp-2 cells – cell-based, HTS, cytotoxicity control for RSV inhibitor project, dose response (AID 2410); format: functional; conditions: human respiratory syncytial virus
Cannabinoid receptor 1 [5] = target: T2, Cannabinoid receptor 1 (Homo sapiens, UniProt P21554); experiment: SAR analysis of agonists of the Cannabinoid Receptor 1 using an Image-Based Assay - Set 4. [Related pubchem assays (depositor defined):AID2013, AID2026]; format: functional
[6] = target: T3, Probable nicotinate-nucleotide adenylyltransferase (Staphylococcus aureus (strain N315), UniProt P65502); format: functional, Staphylococcus aureus subsp. aureus N315;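 on IC50 Mean: confirmatory dose-response retesting of NadD inhibitor hits first found in an ultra-high-throughput screen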
Cannabinoid receptor 2 [7] = target: T4, Cannabinoid receptor 2 (Homo sapiens, UniProt P34972); experiment: SAR analysis of agonists of the Cannabinoid Receptor 2 using an Image-Based Assay - Set 3. [Related pubchem assays (depositor defined):AID2013, AID2026]; format: functional
[8] = target: T5, G-protein coupled receptor 35 (Homo sapiens, UniProt Q9HC97); experiment: SAR analysis of Agonists of the GPR35 Receptor using an Image-Based Assay - Set 4. [Related pubchem assays (depositor defined):AID2013, AID2026]; format: functional
[9] = target: G-protein coupled receptor 55 (Homo sapiens, UniProt Q9Y2T6); experiment: SAR Analysis of Selective Antagonists of GPR55 using an Image-Based Assay - Set 4. [Related pubchem assays (depositor defined):AID2013, AID2026]; format: functional;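 further: antagonism of response to 5 µM lysophosphatidylinositol agonist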
Cannabinoid receptor 2 [10] = target: T4, Cannabinoid receptor 2; experiment: SAR analysis of antagonists of the Cannabinoid Receptor 2 using an Image-Based Assay - Set 3. [Related pubchem assays (depositor defined):AID2013, AID2026]; format: functional
[11] = target: T3, Probable nicotinate-nucleotide adenylyltransferase; format: functional, Staphylococcus aureus subsp. aureus N315; conditions: read-out: IC50_Mean
[12] = target: T5, G-protein coupled receptor 35; experiment: SAR analysis of Antagonists of the GPR35 Receptor using an Image-Based Assay - Set 6. [Related pubchem assays (depositor defined):AID2013, AID2026]; format: functional
Cannabinoid receptor 1 [13] = target: T2, Cannabinoid receptor 1; experiment: SAR analysis of antagonists of the Cannabinoid Receptor 1 using an Image-Based Assay - Set 4. [Related pubchem assays (depositor defined):AID2013, AID2026]; format: functional
Protein RecA = target: T6, Protein RecA (Mycobacterium tuberculosis, UniProt P9WHJ3); experiment: Fluorescence Cell-Free Homogeneous Dose Retest to Identify Inhibitors of RecA-Intein Splicing Activity. [Related pubchem assays (depositor defined):AID2097, AID2223, AID489010, AID492950]; format: functional
T6 sequence (P9WHJ3 whole entry): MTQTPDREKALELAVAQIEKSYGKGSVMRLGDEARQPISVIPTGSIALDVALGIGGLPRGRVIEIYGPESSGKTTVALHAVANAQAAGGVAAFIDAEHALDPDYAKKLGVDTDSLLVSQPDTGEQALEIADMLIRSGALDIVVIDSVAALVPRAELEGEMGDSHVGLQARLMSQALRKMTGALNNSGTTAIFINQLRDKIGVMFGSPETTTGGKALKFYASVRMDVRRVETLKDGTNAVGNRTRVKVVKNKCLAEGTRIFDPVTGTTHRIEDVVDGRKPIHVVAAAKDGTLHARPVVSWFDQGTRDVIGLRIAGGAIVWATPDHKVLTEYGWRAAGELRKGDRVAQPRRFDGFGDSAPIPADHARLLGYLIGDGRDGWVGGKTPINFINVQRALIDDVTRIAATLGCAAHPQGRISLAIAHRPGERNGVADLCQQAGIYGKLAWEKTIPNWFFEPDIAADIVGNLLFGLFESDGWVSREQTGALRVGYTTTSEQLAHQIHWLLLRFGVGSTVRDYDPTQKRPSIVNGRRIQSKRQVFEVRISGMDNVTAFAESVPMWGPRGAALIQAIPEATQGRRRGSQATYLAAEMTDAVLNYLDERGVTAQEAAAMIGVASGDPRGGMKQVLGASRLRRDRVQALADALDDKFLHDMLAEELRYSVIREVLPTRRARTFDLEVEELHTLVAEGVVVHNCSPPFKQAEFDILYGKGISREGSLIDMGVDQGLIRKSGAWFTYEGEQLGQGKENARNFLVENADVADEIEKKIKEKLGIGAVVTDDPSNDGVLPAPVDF

[14] = Intein inhibitors as potential Tuberculosis drugs, a cytotoxicity screen. [Related pubchem assays (depositor defined):AID2221, AID2223, AID434968, AID435010, AID449749, AID449750, AID489010]; format: functional
[15] = target: T7, Replicative DNA helicase DnaB (Mycobacterium tuberculosis, UniProt P9WMR3); experiment: DnaB intein splicing inhibitors, dose response, biochemical, cell-free fluorescence (AID 449749); format: functional
T7 sequence (P9WMR3 whole entry): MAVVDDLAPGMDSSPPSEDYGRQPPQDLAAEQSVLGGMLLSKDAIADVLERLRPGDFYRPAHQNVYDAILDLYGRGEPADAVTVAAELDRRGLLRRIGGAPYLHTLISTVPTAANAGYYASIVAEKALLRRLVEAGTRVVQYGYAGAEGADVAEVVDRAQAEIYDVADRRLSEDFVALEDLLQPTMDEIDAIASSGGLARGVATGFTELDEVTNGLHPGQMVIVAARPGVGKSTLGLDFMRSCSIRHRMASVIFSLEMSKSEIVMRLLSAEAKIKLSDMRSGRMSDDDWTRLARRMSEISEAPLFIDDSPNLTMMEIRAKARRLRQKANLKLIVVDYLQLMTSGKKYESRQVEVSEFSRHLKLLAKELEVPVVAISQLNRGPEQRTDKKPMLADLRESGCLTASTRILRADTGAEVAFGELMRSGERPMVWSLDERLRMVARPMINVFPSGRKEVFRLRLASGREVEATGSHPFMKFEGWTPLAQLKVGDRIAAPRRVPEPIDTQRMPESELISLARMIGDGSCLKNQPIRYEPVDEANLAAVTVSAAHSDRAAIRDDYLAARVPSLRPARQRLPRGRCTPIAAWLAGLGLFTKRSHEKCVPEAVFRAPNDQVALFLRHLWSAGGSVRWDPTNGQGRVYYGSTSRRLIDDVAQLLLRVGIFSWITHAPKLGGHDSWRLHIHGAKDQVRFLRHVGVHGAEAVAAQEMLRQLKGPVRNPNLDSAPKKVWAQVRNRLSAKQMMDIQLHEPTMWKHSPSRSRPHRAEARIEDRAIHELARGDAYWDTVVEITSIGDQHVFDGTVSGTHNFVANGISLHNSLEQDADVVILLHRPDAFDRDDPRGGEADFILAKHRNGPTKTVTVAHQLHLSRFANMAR

Fatty acid synthase [16] = target: T8, Fatty acid synthase (Homo sapiens, UniProt P49327); experiment: inhibition of human FAS-TE enzyme activity – biochemical, endpoint fluorescence intensity, uHTS hits, dose response (AID 624327); format: functional;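 further: fluorescence from hydrolysis of an O-methyl fluorescein acyl ester substrate by the enzyme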
[17] = Luminescence Cell-Based Dose Retest to Confirm Inhibitors of Cancer Stem Cells. [Related pubchem assays (depositor defined):AID2717, AID2721]; format: functional; conditions: Homo sapiens
Fatty acid synthase [18] = target: T8, Fatty acid synthase; experiment: inhibition of human FAS-TE enzyme activity – biochemical, kinetic fluorescence intensity, dose response (AID 624326); format: functional;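 further: rate of fluorescence rise from hydrolysis of a fluorogenic O-methyl fluorescein ester substrate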
[19] = target: T9, E3 ubiquitin-protein ligase XIAP (Homo sapiens, UniProt P98170); experiment: Chemical Antagonists of IAP-family anti-apoptotic proteins confirmation. [Related pubchem assays (depositor defined):AID1018, AID1513, AID1514, AID1638, AID1749, AID1750, AID488957, AID488963]
Leucine aminopeptidase = target: T10, Leucine aminopeptidase (Plasmodium falciparum 3D7, UniProt Q8IL11); experiment: P. falciparum M17LAP inhibitors, primary screen, biochemical, fluorogenic H-Leu-NHMec substrate, 1536-well (AID 1619); format: functional
T10 sequence (Q8IL11 whole entry): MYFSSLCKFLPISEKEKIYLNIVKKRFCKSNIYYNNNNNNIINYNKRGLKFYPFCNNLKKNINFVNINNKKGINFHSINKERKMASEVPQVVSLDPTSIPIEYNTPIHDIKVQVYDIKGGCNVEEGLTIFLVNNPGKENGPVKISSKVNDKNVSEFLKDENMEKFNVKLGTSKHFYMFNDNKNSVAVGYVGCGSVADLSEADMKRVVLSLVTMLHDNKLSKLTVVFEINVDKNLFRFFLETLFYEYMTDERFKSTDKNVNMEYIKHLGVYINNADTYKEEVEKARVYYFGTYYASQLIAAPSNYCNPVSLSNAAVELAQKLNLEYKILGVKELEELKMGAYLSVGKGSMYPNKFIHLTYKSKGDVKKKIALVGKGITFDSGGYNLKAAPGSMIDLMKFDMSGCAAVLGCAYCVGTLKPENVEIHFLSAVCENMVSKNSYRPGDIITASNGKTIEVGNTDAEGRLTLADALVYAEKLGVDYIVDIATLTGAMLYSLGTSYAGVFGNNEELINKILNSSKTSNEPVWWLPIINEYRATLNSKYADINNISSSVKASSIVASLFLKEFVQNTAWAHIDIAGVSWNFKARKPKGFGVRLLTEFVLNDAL

[20] = target: T9, E3 ubiquitin-protein ligase XIAP; experiment: Counter Screen using XIAP-Bir3 of the Chemical Antagonists of IAP-family anti-apoptotic proteins confirmation assay. [Related pubchem assays (depositor defined):AID1018, AID1449, AID1513, AID1638, AID1749, AID1750, AID488957, AID488963]

T9 sequence (P98170 whole entry): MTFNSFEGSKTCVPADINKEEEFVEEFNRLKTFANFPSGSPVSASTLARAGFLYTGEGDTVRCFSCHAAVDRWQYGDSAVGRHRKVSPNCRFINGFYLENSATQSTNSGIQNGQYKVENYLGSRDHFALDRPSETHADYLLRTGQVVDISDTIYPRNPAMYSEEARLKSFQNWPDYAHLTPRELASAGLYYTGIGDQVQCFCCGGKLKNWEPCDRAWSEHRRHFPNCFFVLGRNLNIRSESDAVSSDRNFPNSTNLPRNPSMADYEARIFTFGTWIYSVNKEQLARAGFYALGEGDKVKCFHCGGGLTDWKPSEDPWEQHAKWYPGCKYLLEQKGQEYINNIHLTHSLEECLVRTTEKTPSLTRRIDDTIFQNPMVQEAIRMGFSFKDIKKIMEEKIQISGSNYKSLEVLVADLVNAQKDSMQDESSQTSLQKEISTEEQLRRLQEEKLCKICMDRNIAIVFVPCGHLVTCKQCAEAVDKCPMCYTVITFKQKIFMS
Chain of Induced myeloid leukemia cell differentiation protein Mcl-1 (Q07820 whole entry, the tested form may be a part): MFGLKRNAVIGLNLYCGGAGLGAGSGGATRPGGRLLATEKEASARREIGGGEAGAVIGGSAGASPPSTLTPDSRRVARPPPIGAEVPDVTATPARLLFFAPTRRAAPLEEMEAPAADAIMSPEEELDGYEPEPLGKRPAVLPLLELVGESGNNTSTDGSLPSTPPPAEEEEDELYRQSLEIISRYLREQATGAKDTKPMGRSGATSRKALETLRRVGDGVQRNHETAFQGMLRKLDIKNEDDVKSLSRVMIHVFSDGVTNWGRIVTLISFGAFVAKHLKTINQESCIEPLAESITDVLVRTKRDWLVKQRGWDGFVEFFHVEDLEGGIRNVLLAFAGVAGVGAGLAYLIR
T2 sequence (P21554 whole entry): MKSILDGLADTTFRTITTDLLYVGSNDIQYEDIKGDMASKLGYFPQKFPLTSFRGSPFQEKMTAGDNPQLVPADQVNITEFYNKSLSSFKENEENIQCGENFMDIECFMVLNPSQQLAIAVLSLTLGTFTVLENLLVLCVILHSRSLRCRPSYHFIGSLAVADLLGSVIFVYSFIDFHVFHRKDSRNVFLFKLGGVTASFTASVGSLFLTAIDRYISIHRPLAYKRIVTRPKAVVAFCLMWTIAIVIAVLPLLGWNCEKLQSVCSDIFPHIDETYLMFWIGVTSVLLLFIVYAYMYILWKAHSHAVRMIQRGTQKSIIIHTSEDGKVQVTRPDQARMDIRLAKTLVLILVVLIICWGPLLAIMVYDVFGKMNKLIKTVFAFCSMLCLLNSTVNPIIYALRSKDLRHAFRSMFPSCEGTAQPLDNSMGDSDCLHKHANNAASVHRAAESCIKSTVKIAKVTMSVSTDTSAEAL
T1 sequence (Q01196 whole entry, the tested form may be a part): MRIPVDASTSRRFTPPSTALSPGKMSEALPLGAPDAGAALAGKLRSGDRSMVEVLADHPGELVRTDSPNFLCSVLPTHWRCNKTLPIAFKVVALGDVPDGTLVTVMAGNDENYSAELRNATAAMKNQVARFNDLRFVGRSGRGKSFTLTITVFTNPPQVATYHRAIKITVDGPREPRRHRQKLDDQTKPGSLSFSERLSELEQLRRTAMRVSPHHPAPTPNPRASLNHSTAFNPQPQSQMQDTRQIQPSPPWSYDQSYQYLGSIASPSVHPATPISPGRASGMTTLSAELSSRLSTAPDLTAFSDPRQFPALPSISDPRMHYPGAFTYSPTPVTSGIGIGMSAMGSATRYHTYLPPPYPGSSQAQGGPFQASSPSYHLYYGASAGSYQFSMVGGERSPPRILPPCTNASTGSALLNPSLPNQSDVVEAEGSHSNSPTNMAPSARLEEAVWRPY
T1 sequence (Q13951 whole entry, the tested form may be a part): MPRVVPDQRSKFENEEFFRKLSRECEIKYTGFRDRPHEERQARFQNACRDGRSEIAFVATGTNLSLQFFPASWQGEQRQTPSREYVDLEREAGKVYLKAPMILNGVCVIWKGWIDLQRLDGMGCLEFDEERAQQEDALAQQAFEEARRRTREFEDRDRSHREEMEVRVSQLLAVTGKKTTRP
T4 sequence (P34972 whole entry): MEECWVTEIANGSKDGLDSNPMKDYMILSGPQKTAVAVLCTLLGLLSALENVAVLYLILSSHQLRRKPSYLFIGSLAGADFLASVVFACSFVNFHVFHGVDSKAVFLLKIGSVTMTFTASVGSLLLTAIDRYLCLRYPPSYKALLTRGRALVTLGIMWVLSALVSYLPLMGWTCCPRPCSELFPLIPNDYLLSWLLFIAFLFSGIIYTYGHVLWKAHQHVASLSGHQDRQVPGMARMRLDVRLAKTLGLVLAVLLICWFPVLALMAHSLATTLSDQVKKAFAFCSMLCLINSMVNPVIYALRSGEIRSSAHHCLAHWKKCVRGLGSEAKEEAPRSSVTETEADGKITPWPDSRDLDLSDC
T3 sequence (P65502 whole entry): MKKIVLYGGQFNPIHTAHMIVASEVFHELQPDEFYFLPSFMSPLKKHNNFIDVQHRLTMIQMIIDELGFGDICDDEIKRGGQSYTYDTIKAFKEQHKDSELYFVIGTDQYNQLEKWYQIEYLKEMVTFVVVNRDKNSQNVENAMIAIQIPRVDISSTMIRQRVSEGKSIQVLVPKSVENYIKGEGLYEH
T8 sequence (P49327 whole entry): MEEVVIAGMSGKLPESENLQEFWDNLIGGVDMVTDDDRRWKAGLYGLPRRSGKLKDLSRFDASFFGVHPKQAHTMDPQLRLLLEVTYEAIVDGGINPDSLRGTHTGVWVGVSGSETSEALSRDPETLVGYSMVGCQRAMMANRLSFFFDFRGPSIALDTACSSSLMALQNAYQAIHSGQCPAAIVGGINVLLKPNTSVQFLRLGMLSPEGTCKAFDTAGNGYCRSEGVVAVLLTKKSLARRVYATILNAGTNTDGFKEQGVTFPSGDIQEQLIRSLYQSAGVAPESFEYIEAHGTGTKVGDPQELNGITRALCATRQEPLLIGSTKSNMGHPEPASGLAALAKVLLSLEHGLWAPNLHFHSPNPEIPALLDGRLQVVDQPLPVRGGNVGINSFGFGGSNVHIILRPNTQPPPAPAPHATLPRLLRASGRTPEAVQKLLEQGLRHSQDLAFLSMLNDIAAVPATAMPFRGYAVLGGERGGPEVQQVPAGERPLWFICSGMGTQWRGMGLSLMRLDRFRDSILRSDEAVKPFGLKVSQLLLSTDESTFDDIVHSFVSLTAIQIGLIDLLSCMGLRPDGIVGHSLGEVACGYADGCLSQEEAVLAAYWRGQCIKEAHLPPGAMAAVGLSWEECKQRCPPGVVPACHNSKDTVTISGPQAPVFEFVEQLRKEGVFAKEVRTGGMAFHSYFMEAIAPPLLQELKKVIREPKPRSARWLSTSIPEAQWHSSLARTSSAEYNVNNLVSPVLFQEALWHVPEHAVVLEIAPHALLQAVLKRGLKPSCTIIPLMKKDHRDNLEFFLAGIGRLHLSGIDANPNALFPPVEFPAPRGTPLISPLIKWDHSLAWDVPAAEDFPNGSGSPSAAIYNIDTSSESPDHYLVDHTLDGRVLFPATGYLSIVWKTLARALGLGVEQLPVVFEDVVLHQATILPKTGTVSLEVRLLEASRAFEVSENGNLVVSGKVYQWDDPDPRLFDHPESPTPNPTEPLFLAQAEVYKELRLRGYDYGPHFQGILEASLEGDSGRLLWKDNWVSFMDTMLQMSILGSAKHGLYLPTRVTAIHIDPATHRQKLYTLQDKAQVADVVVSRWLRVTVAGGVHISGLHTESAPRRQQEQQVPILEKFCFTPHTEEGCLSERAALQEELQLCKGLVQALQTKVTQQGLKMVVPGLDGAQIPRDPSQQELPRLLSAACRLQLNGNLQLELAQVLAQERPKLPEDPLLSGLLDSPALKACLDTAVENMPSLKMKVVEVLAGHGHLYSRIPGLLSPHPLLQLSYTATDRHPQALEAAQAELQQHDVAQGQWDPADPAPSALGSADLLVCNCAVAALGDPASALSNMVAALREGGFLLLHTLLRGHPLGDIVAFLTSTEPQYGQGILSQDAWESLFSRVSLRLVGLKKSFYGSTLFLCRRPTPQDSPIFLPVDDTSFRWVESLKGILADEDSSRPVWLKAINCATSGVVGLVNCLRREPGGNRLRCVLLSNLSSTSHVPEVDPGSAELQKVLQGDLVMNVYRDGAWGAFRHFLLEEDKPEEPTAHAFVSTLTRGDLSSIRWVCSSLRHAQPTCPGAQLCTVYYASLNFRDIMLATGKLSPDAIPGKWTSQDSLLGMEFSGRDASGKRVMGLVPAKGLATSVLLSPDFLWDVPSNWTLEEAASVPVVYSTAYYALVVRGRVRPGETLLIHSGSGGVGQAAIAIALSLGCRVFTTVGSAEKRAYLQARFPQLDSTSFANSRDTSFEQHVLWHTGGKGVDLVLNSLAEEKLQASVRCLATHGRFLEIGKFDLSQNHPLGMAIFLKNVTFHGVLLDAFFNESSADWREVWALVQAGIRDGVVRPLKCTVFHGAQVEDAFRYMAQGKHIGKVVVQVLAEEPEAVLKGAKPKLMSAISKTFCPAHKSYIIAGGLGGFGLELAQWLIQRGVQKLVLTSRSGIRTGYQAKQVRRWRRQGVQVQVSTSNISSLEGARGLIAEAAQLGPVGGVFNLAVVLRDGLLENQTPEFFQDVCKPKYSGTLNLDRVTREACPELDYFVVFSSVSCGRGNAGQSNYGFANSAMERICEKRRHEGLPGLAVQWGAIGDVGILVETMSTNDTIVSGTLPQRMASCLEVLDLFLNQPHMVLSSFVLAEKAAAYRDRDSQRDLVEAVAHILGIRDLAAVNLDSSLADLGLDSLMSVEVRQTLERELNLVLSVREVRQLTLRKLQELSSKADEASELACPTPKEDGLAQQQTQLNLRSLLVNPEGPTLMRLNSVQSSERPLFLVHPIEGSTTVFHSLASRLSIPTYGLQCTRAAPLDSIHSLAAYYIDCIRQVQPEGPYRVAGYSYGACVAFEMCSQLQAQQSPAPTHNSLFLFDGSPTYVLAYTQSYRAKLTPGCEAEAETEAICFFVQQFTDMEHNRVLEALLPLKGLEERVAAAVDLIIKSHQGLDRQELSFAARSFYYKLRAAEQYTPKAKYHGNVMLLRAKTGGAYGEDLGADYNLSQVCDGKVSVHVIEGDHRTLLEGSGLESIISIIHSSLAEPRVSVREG

Q: Which IC50 [1] does the source give for `Cc1ccc(Cn2c(=N)c(C(=O)NCc3ccco3)cc3c(=O)n4ccccc4nc32)cc1` here?
A: The IC50 was 3.14 µM (active).

Q: What about the IC50 [2] of the same molecule?
A: Its IC50 is 15.3 µM (active).

Q: And the IC50 [3]?
A: Its IC50 is 0.475 µM (active).

Q: Which results are given for `CCCCCCC#Cc1cncc(C(=O)NNC(=O)Nc2cc(Cl)cc(Cl)c2)c1`?
A: IC50 (SUMO-activating enzyme): 59.8 µM (active); CC50 [4]: 9.35 µM (active)

Q: Which results are given for `O=C(Nc1ccc(S(=O)(=O)Nc2nccs2)cc1)c1cc(-c2ccncc2)nc2ccccc12`?
A: EC50 (Cannabinoid receptor 1 [5]): > 32 µM (inactive); IC50 [1]: 1.64 µM (active); IC50 [6]: 6.6 µM (active); EC50 (Cannabinoid receptor 2 [7]): > 32 µM (inactive); EC50 [8]: > 32 µM (inactive); IC50 [9]: > 32 µM (inactive); IC50 (Cannabinoid receptor 2 [10]): > 32 µM (inactive); IC50 [11]: 21.6 µM (active); IC50 [12]: > 32 µM (inactive); IC50 (Cannabinoid receptor 1 [13]): 2.23 µM (active)

Q: For `CC(NC(=O)COC(=O)c1cc(NS(=O)(=O)c2ccc(Cl)c([N+](=O)[O-])c2)ccc1O)C1CC2CCC1C2` (centres undefined), which EC50 (Protein RecA) is on record?
A: Its EC50 is 3.7 µM (active).

Q: And the CC50 [14]?
A: Its CC50 is 32.7 µM (active).

Q: And the AC50 [15]?
A: Its AC50 is 2.01 µM (active).

Q: What about the IC50 (Fatty acid synthase [16]) of the same molecule?
A: The IC50 was 11.1 µM (active).

Q: And the AC50 [17]?
A: The AC50 was 3.17 µM (active).

Q: And the IC50 (Fatty acid synthase [18])?
A: The IC50 was 11.7 µM (active).

Q: Which IC50 [19] does the source give for `O=C(O)[C@H](Cc1ccccc1)N1Cc2ccccc2C1=O` here?
A: The IC50 was 131 µM (inactive).

Q: And the IC50 (Leucine aminopeptidase)?
A: The IC50 was 6.47 µM (active).

Q: What about the IC50 [20] of the same molecule?
A: The IC50 was > 200 µM (inactive).
